Literature values, collected in patent US20230390541A1, “Dermal Patch for Transdermal Modulation of Ghrelin Pathway” (Resarcion, LLC, priority 2019, published 2023).

Settings: shortest structural analog among truncated ghrelin analogs

Ser^3(octanoyl)-ghrelin (1-5)
activity relative to native ghrelin: activity similar to the native hormone
